pIC50: −log10 of the molar value. Where two headings read alike, the source gives them in different places.
How the values were obtained:
[1] = target: testosterone 5α-reductase prepared from rat prostates; experiment: Testosterone 5α-reductase assay ([1,2,6,7-3H]testosterone as substrate);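 also: conversion of tritiated testosterone to 5α-dihydrotestosterone, separated by TLC and scintillation counted, relative to enzyme control without test sample after subtracting substrate blank without enzyme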
Experimental: Since the rat prostate extracts for measuring testosterone 5α-reductase inhibition were used in a neutral pH buffer, both isozymes were assayed in this study due to differences in its biochemical properties.
The enzyme suspension of testosterone 5α-reductase was prepared from the homogenate of the ventral prostate of male Sprague-Dawley rats using the methods previously reported [32]. Testosterone 5α-reductase inhibition was measured according to the methods previously reported [32]. A brief description follows: Sprague-Dawley male rats 7-8 weeks old were sacrificed by diethyl ether, and the ventral prostates were excised and minced with a pair of scissors. The prostates were homogenized with a glass-glass homogenizer in medium A (0.32 M sucrose, 0.1 mM dithiothreitol and 20 mM sodium phosphate, pH 6.5) to about 20% (w/v). The homogenate was filtered over 8 layers of surgical gauze, and centrifuged at 3,000 × g for 15 min. The resulting pellets were resuspended in medium A to about 25% (w/v) by triturating the suspension sequentially through an 18-gauge and then a 20-gauge needle. The assay mixture containing the test sample in ethanol (10 μL), reaction solution [525 μL, 1 mM dithiothreitol, 40 mM sodium phosphate (pH 6.5), 50 µM NADPH and 2.2 mM [1,2,6,7-^3H]testosterone, 3.15-3.89 TBq/mmol, PerkinElmer (Waltham, MA, USA)] and the enzyme suspension prepared above (40 μL), was incubated at 37°C for 1 h. After extraction with ethyl acetate (1 mL), a sample of the ethyl acetate phase (50 μL) was chromatographed on a silica plastic sheet (Kieselgel 60 F254, Merck KGaA (Darmstadt, Germany)) using the developing solvent system ethyl acetate-cyclohexane (1:1). Each of the testosterone and 5α-dihydrotestosterone areas was cut from the sheet. The ^3H radioactivity of each fragment was counted in 5 mL of Aquasol-2 (PerkinElmer) with a liquid scintillation counter [LS 6500, Beckman Coulter (Brea, CA, USA)]. Testosterone 5α-reductase inhibitory activity was calculated as follows:
where DHT and T are the ^3H radioactivity recovered in the areas of 5α-dihydrotestosterone and testosterone, respectively. rsample and rcontrol are reaction rates of the test sample and the enzyme control in which reaction rates are measured in the presence and absence of test sample, respectively, and rblank is reaction rate of the substrate blank in which reaction rate is measured in the absence of test sample and enzyme suspension. IC50 was calculated from the inhibitory activity values at several concentrations using linear regression analysis. Each enzyme reaction was carried out in duplicate.

[2] = read-out: IC50 (5α-reductase inhibitory activity), rat prostatic testosterone 5α-reductase
[3] = read-out: IC50 (testosterone 5α-reductase inhibitory activity), rat ventral prostate enzyme suspension, pH 6.5, 37°C, 1 h, both type 1 and type 2 isozymes
[4] = rat prostatic testosterone 5α-reductase

| Compound | melting point | pIC50 [1, 2] | pIC50 [1, 3] | 5α-reductase inhibitory activity in words [1, 4] |
| --- | --- | --- | --- | --- |
| CC(=NO)[C@H]1CC[C@H]2[C@@H]3C=CC4=CC(=O)[C@@H]5O[C@@H]5[C@]4(C)[C@H]3CC[C@]12C | 228 to 230 °C |  |  |  |
| CC(=NO)[C@H]1CC[C@H]2[C@@H]3[C@@H]4O[C@@H]4C4=CC(=O)C=C[C@]4(C)[C@H]3CC[C@]12C | 245 to 247 °C |  |  |  |
| CC(=O)[C@H]1CCC2C3CCC(=O)[C@](C)(CCC(=O)O)C3CC[C@@]21C (stereo partly shown) [Compound 2, 5,20-Dioxo-A-nor-3,5-secopregnane-3-oic acid] | 176 to 178 °C |  | < 5.00 | only a weak inhibitory activity |
| CC(=O)[C@H]1CC[C@H]2[C@@H]3CCC4NC(=O)C=C[C@]4(C)[C@H]3CC[C@]12C (stereo partly shown) [Compound 7, 4-Aza-1-pregnene-3,20-dione] | 174 to 176 °C |  | 7.85 | potent inhibition |
| CC(=O)[C@H]1CC[C@H]2[C@@H]3C=CC4=CC(=O)C=C[C@]4(C)[C@H]3CC[C@]12C [Compound 9, 1,4,6-Pregnatriene-3,20-dione] | 144 to 146 °C |  | 6.12 | moderate inhibition |
| CC(=O)[C@H]1CC[C@H]2[C@@H]3C=CC4=CC(=O)[C@@H]5O[C@@H]5[C@]4(C)[C@H]3CC[C@]12C [Compound 10, 1α,2α-Epoxypregna-4,6-diene-3,20-dione] | 183 to 185 °C |  | < 5.00 | no inhibitory activity |
| CC(=O)[C@H]1CC[C@H]2[C@@H]3[C@@H]4O[C@@H]4C4=CC(=O)C=C[C@]4(C)[C@H]3CC[C@]12C [Compound 13, 6α,7α-Epoxypregna-1,4-diene-3,20-dione] | 206 to 208 °C |  | < 5.00 | no inhibitory activity |
| CC(=O)O[C@H]1CC[C@@]2(C)C(=CCC3C2CC[C@@]2(C)C3CC[C@@H]2C(C)=O)C1 (stereo partly drawn) [Compound 15, 3β-Acetoxypregnenolone] |  |  | < 5.00 | no inhibition |
| CC(=O)O[C@H]1CC[C@@]2(C)C(=CCC3C2CC[C@@]2(C)C3CC[C@@H]2C(C)=NO)C1 (stereo partly shown) [Compound 16] |  |  | < 5.00 | no inhibition |
| CC(=O)C1CCC2C3CC4OC45CC(O)CCC5(C)C3CCC12C (stereo not shown) [Compound 17] |  |  | < 5.00 | no inhibition |
| CC(=NO)C1CCC2C3CC4OC45CC(O)CCC5(C)C3CCC12C (stereo not shown) [Compound 18] |  |  | < 5.00 | no inhibition |
| CC(=NO)[C@H]1CCC2C3CCC4=CC(=O)CC[C@]4(C)C3CC[C@@]21C (stereo partly shown) [Compound 20] |  |  | 7.85 |  |
| CC(=NO)[C@H]1CCC2C3CCC4=CC(=O)C=C[C@]4(C)C3CC[C@@]21C (stereo partly shown) [Compound 22, 1,4-Pregnadiene-20-oxime] |  |  | 6.85 |  |
| CC(C)(C)NC(=O)[C@H]1CC[C@H]2[C@@H]3CC[C@H]4NC(=O)C=C[C@]4(C)[C@H]3CC[C@]12C [Finasteride, finasteride, reference compound] |  | 8.92 | 8.92 |  |

The next lines start with results.

| melting point | pIC50 [1, 2] | pIC50 [1, 3] | Compound | 5α-reductase inhibitory activity in words [1, 4] |
| --- | --- | --- | --- | --- |
|  | 8.19 | 8.19 | CC(=O)[C@H]1CC[C@H]2[C@@H]3CCC4=CC(=O)CC[C@]4(C)[C@H]3CC[C@]12C [Compound 1, 4-pregnene-3,20-dione, reference compound] |  |
| 158 to 160 °C |  | 5.64 | CC(=O)[C@H]1CC[C@H]2[C@@H]3CC=C4NC(=O)CC[C@]4(C)[C@H]3CC[C@]12C [Compound 3, 4-Aza-5-pregnene-3,20-dione] | moderate inhibition |
| 208 to 210 °C | 7.59 | 7.59 | CC(=NO)[C@H]1CC[C@H]2[C@@H]3CC=C4NC(=O)CC[C@]4(C)[C@H]3CC[C@]12C [Compound 4, 4-Aza-5-pregnene-3,20-dione-20-oxime] | potent inhibition |
|  |  | 5.21 | CC(=O)[C@H]1CC[C@H]2[C@@H]3CCC4NC(=O)CC[C@]4(C)[C@H]3CC[C@]12C (stereo partly shown) [Compound 5, 4-Aza-pregnane-3,20-dione] | potent inhibition |
| 194 to 196 °C | 8.00 | 8.00 | CC(=NO)[C@H]1CC[C@H]2[C@@H]3CCC4NC(=O)CC[C@]4(C)[C@H]3CC[C@]12C (stereo partly shown) [Compound 6, 4-Aza-pregnane-3,20-dione-20-oxime] | potent inhibition |
| 235 to 237 °C | 7.96 | 7.96 | CC(=NO)[C@H]1CC[C@H]2[C@@H]3CCC4NC(=O)C=C[C@]4(C)[C@H]3CC[C@]12C (stereo partly shown) [Compound 8, 4-Aza-1-pregnene-3,20-dione-20-oxime] | potent inhibition |
|  |  | 5.68 | CC(=NO)[C@H]1CCC2C3CCC(=O)[C@](C)(CCC(=O)O)C3CC[C@@]21C (stereo partly shown) [Compound 21] |  |

From PMC6268135, “Synthesis and 5α-Reductase Inhibitory Activity of C21 Steroids Having 1,4-diene or 4,6-diene 20-ones and 4-Azasteroid 20-Oximes” (Molecules, 2011)
